Data published in patent US20260250257A1, “ANTIBACTERIAL AND SYNERGISTIC ACTIVE COMPOUND AND USE THEREOF” (EAST CHINA UNIVERSITY OF SCIENCE AND TECHNOLOGY, priority 2023, published 2026).
≈ marks a conversion by molar mass, not a printed value.

What was measured:
Format in all cases: cell-based
[1] = test system: ATCC9027 strain (Pseudomonas aeruginosa); experiment: Checkerboard antibacterial synergistic activity test with polymyxin E (FIC); set-up: key: FIC≤0.5 synergy; 0.5–1 additive; 1–2 indifferent; ≥2 antagonism; conditions: combined with polymyxin E
Method: (§1) Polymyxin E was diluted in sterile MH broth medium to concentrations of 16, 8, 4, 2, 1, 0.5, 0.25, 0.125, 0.0625, 0.031, and 0.015 μg/ml, and the drug to be tested was diluted to concentrations of 256, 128, 64, 32, 16, 8, and 4 μg/ml. According to the checkerboard method, combinations of the drug to be tested and polymyxin at different concentrations in ascending order were placed into a 96-well plate, and corresponding blank control groups were set up. 50 μl of the drug solution was added to each well, then 100 μl of bacterial liquid was added, and incubated in a 37° C. incubator for 16 hours. […] Calculation and judgment criteria:
(§2) Fractional Inhibitory Concentration (FIC) is calculated as follows: […]
(§3) Judgment criteria: FIC≤0.5: synergistic effect; 0.5<FIC<1: additive effect; 1<FIC<2: indifferent effect; FIC≥2: antagonistic effect.
(§4) In the table: ATCC19606 strain is Acinetobacter baumannii, ATCC25922 strain is Escherichia coli, ATCC13883 strain is Klebsiella pneumoniae, ATCC9027 strain is Pseudomonas aeruginosa. All four strains were purchased from ATCC.

[2] = test system: ATCC19606 strain (Acinetobacter baumannii); experiment: as above; set-up: key: FIC≤0.5 synergy; 0.5–1 additive; 1–2 indifferent; ≥2 antagonism; conditions: combined with polymyxin E
Method: as §1, §2, §3, §4

[3] = test system: ATCC25922 strain (Escherichia coli); experiment: as above; set-up: key: FIC≤0.5 synergy; 0.5–1 additive; 1–2 indifferent; ≥2 antagonism; conditions: combined with polymyxin E
Method: as §1, §2, §3, §4

[4] = test system: ATCC13883 strain (Klebsiella pneumoniae); experiment: as above; set-up: key: FIC≤0.5 synergy; 0.5–1 additive; 1–2 indifferent; ≥2 antagonism; conditions: combined with polymyxin E
Method: as §1, §2, §3, §4

[5] = test system: ATCC9027 strain (Pseudomonas aeruginosa); experiment: Broth microdilution, antibacterial activity of the compound used alone; conditions: for MIC: read-out: Antibacterial activity of the compound of Formula I, ATCC9027
Source text: (§5) The broth microdilution method was used to test the antibacterial effects of the compounds of the present invention against various Gram-negative bacterial strains when used alone.

[6] = test system: ATCC19606 strain (Acinetobacter baumannii); experiment: as above; conditions: for MIC: read-out: Antibacterial activity of the compound of Formula I, ATCC19606
Source text: as §5

[7] = test system: ATCC25922 strain (Escherichia coli); experiment: as above; conditions: for MIC: read-out: Antibacterial activity of the compound of Formula I, ATCC25922
Source text: as §5

[8] = test system: ATCC13883 strain (Klebsiella pneumoniae); experiment: as above; conditions: for MIC: read-out: Antibacterial activity of the compound of Formula I, ATCC13883
Source text: as §5

MIC [5]	MIC [6]	MIC [7]	MIC [8]	Compound	Synergistic activity (FIC value) ATCC9027 [1]	Synergistic activity (FIC value) ATCC19606 [2]	Synergistic activity (FIC value) ATCC25922 [3]	Synergistic activity (FIC value) ATCC13883 [4]	Antibacterial activity of the compound of Formula I, ATCC9027 [5]	Antibacterial activity of the compound of Formula I, ATCC19606 [6]	Antibacterial activity of the compound of Formula I, ATCC25922 [7]	Antibacterial activity of the compound of Formula I, ATCC13883 [8]
				CS(=O)(=O)c1ccc(Oc2ccccc2-c2nc(N=C(N)N)sc2Cl)cc1 [Compound I-103]	1.25	1.25	0.53	1.25	256 µg/mL	256 µg/mL	256 µg/mL	256 µg/mL
				NC(N)=Nc1nc(-c2cc(Cl)cc(Cl)c2)cs1 [Compound I-39]	1.25	0.75	1.25	1.25	64 µg/mL	256 µg/mL	128 µg/mL	128 µg/mL
				NC(N)=Nc1nc(-c2ccccc2Cl)c[nH]1 [Compound I-36]	0.5	0.25	0.56	0.31	64 µg/mL	256 µg/mL	128 µg/mL	128 µg/mL
				NC(N)=Nc1nc(-c2cccc(NC(=O)Nc3ccc(Cl)cc3Cl)c2)c(Cl)s1 [Compound I-133]	0.04	0.38	0.04	0.19	256 µg/mL	256 µg/mL	256 µg/mL	256 µg/mL
				NC(N)=Nc1nc(-c2cccc3cc(Cl)cc(Cl)c23)c(Br)s1 [Compound I-66]	0.53	0.13	0.38	0.31	256 µg/mL	256 µg/mL	256 µg/mL	256 µg/mL
				Oc1ccc(-c2ccccn2)c(-c2c[se]c(N=C3NCCCN3)n2)c1 [Compound I-137]	1.25	1.25	0.5	1.25	128 µg/mL	256 µg/mL	128 µg/mL	128 µg/mL
				CSc1cc2c(C)cccn2c1-c1c[se]c(N=C2NCCCN2)n1 [Compound I-191]	0.51	0.13	0.52	0.19	256 µg/mL	256 µg/mL	256 µg/mL	256 µg/mL
256 µg/mL (≈ 847 µM)	256 µg/mL (≈ 847 µM)	256 µg/mL (≈ 847 µM)	256 µg/mL (≈ 847 µM)	CC(C)=CCOc1cccc(-c2csc(N=C(N)N)n2)c1 [Compound I-47]	1.25	0.75	0.5	1.25				
				CC(C)=CCOc1cc(OCC=C(C)C)cc(-c2nc(N=C(N)N)[nH]c2C)c1 [Compound I-49]	0.53	0.25	1.25	0.53	256 µg/mL	256 µg/mL	256 µg/mL	256 µg/mL
				NC(N)=Nc1nc(-c2ccc(F)cc2Oc2ccc(Cl)cc2Cl)c(Cl)s1 [Compound I-90]	0.18	0.03	0.15	0.13	256 µg/mL	256 µg/mL	256 µg/mL	256 µg/mL
				Cc1ccc(Oc2cccc(-c3csc(N=C4NCCCN4)n3)c2)c(C)c1 [Compound I-153]	0.06	0.31	0.14	0.09	256 µg/mL	256 µg/mL	256 µg/mL	256 µg/mL
				O=[N+]([O-])c1cc(-c2nc(N=C3NCCCN3)sc2Br)ccc1Br [Compound I-176]	0.53	0.13	0.38	0.31	256 µg/mL	256 µg/mL	256 µg/mL	256 µg/mL
				NC(N)=Nc1nc(-c2ccc(I)cc2)cs1 [Compound I-33]	0.63	0.28	0.5	0.25	256 µg/mL	256 µg/mL	256 µg/mL	256 µg/mL
				NC(N)=Nc1nc(-c2cccc(Oc3ccccc3Cl)c2)cs1 [Compound I-94]	0.52	0.04	0.26	0.19	256 µg/mL	256 µg/mL	256 µg/mL	256 µg/mL
				CNC(=O)c1ccc(-c2ccncn2)c(-c2csc(N=C3NCCCN3)n2)c1 [Compound I-138]	1.25	1.25	1.25	1.25	256 µg/mL	256 µg/mL	256 µg/mL	256 µg/mL
256 µg/mL (≈ 723 µM)	256 µg/mL (≈ 723 µM)	256 µg/mL (≈ 723 µM)	256 µg/mL (≈ 723 µM)	NC(N)=Nc1nc(-c2cc(C(F)(F)F)cc(C(F)(F)F)c2)cs1 [Compound I-44]	0.52	0.14	0.31	0.25				
				CC(=O)N(C)c1cccc(-c2csc(N=C(N)N)n2)c1 [Compound I-30]	1.25	0.13	0.52	0.19	256 µg/mL	256 µg/mL	256 µg/mL	256 µg/mL
